Here are results for 1 compound from the NIST ThermoML archive (doi:10.1016/j.fluid.2015.10.026).

The term speed of sound denotes how fast a sound wave travels through the sample.

Molecules are shown by their SMILES. ± gives the expanded uncertainty stated by the source.

The conditions of the series: Liquid, Brillouin light scattering.

As for `Cc1ccccc1` [toluene], the speed of sound is, setting by setting: (323.15 K) 1200.8 ± 6 m/s; (373.15 K) 1000 ± 5 m/s; (423.15 K) 806 ± 5.2 m/s; (473.15 K) 616.2 ± 3.3 m/s; (523.15 K) 425.5 ± 2.4 m/s.
